Experiment: molar heat capacity at constant pressure
Settings: 101.33 kPa, Crystal, relaxation calorimetry

O=C(O)c1ccccc1 [benzoic acid]
Settings	molar heat capacity at constant pressure [J/K/mol]
1.855 K	0.01205
1.92 K	0.01371
1.999 K	0.01544
2.082 K	0.0168
2.168 K	0.01932
2.26 K	0.02218
2.357 K	0.02464
2.464 K	0.0282
2.568 K	0.03421
2.679 K	0.03716
2.796 K	0.04141
2.918 K	0.04667
3.044 K	0.04829
3.179 K	0.0605
3.32 K	0.07095
3.465 K	0.07898
3.617 K	0.08814
3.776 K	0.103
3.942 K	0.1157
4.118 K	0.1296
4.303 K	0.1534
4.491 K	0.172
4.686 K	0.1966
4.893 K	0.2248
5.109 K	0.2491
5.336 K	0.3026
5.572 K	0.3324
5.823 K	0.382
6.077 K	0.452
6.345 K	0.5096
6.625 K	0.5803
6.92 K	0.6878
7.225 K	0.7916
7.545 K	0.8991
7.878 K	1.031
8.227 K	1.197
8.596 K	1.338
8.976 K	1.541
9.373 K	1.763
9.789 K	1.997
10.24 K	2.278
10.71 K	2.579
11.18 K	2.902
11.68 K	3.262
12.2 K	3.647
12.74 K	4.074
13.3 K	4.535
13.89 K	5.046
14.5 K	5.598
15.14 K	6.188
15.64 K	6.658
17.1 K	8.085
18.69 K	9.716
20.41 K	11.56
22.32 K	13.61
24.4 K	15.91
26.66 K	18.4
29.13 K	20.97
31.84 K	23.77
34.8 K	26.64
38.03 K	29.6
41.56 K	32.79
45.42 K	35.88
49.63 K	39.11
54.24 K	42.18
59.28 K	45.06
64.78 K	47.92
70.79 K	50.65
77.36 K	53.75
84.51 K	57.18
92.38 K	61.03
100.95 K	64.26
110.98 K	67.64
121.09 K	71.22
131.21 K	75.19
141.28 K	78.86
151.34 K	82.29
161.49 K	85.76
171.59 K	90.18
181.67 K	95.02
191.74 K	98.7
201.82 K	102.27
211.92 K	106.37
222 K	112.07
232.09 K	117.31
242.17 K	119.6
252.25 K	124.22
262.35 K	128.72
272.46 K	133
282.54 K	137.8
292.59 K	141.72
302.66 K	146.37
